Entries after “also recorded” stand apart in the source; their conditions may differ.
Key:
[1] = system: cholesterol 7α hydroxylase (C7αOH); assay: Enzymatic activity of C7αOH in hepatic microsomes after GH infusion; assay type: in vivo, mice; details: for increase of C7αOH activity: GH 1 mg/kg/day, six days, hepatic microsomes
Description: (§1) The studies were approved by the Institutional Animal Care and Use Committee, Sweden. Altogether 75 male LDLRKO and 45 C57 BL/6J mice were purchased from Bommice, Denmark. Animals were housed under standardized conditions in groups of ten. The mice had free access to water and chow; the light cycle hours were between 6 a.m. and 6:00 p.m. At the start of the experiment, osmotic mini pumps containing GH were implanted subcutaneously under light ether anesthesia. Non-GH treated animals were sham-operated. Recombinant human GH (Genotropin®), purchased from Pharmacia & Upjohn, was infused at a rate of 1.0 mg/kg per day. After six days of infusion, animals where anesthetized with ether, and blood was collected from the eye. The mice where thereafter killed by cervical dislocation. The livers were immediately removed and when indicated, 1 g of liver was taken for subsequent preparation of microsomes for assay of enzyme activity as described below. The remaining liver was immediately frozen in liquid nitrogen and stored at −70° C.
(§2) Hepatic microsomes were prepared by differential ultracentrifugation of liver homogenates in the absence of fluoride as previously described (Angelin et al 1984, J Lipid Res. 25; 1159-1166, Einarsson et al. 1986, J. Lipid Res. 27; 82-88, Einarsson et al. 1989, J. Lipid Res. 30; 739-746). Microsomal HMG CoA reductase was assayed from the conversion of [^14C] HMG CoA to mevalonate, and expressed as picomoles formed per mg protein per min. The activity of C7αOH was determined from the formation of 7α-hydroxycholesterol (picomoles/mg protein/min) from endogenous microsomal cholesterol by the use of isotope dilution-mass spectrometry as described in detail. All enzyme assays were carried out in duplicate.
(§3) The means and standard error of means from three separate pools of all animals are shown.

[2] = system: LDLRKO mice; assay: Cholestyramine, atorvastatin and GH alone and in combination: plasma cholesterol and triglycerides; assay type: in vivo; details: 6 days of treatment
[3] = system: C7αOH mRNA; assay: C7αOH mRNA levels by solution hybridization after GH infusion; assay type: in vivo, mice; details: GH treatment, liver
Method: (§4) Total nucleic acids were extracted from a sample of liver from each individual and incubated with the respective complementary radio-labeled cRNA probe.

[4] = system: HMG CoA reductase; assay: Enzymatic activity of HMG CoA reductase in hepatic microsomes after GH infusion; assay type: in vivo, mice; details: for increase of HMG CoA reductase activity: GH 1 mg/kg/day, six days, hepatic microsomes
Description: as §1, §2, §3

[5] = system: LDLRKO mice; assay: FPLC size-fractionation of plasma lipoproteins after GH infusion; assay type: in vivo
Method: (§5) Equal volumes of plasma from each animal were pooled (1-2 mL) and the density was adjusted to 1.21 g/mL with solid KBr. After ultracentrifugation at 10^5 g for 48 h, the supernatant was removed and adjusted with 0.15 M NaCl, 0.01% etylene diamine tetraacetic acid, (EDTA), 0.02% sodium azide, pH 7.3. An aliquot of this solution was injected on a 54×1.8 cm superose 6B column after filtration through a Millipore […] HA filter, 2-mL fractions were collected.
(§6) FIGS. 2 and 3 show the lipoprotein patterns in the four groups of animals described in legend to FIG. 1. Equal volumes of plasma from each animal were pooled and subjected to ultracentrifugation at density 1.21. The supernatant was thereafter separated on a Superose 6 column and fractionated.

[6] = system: C57BL/6J mice; assay: as above; assay type: in vivo; details: pooled plasma, first experiment
Method: as §5, §6

[7] = system: LDL receptors; assay: Ligand blot assay of hepatic LDL-receptors after GH treatment; assay type: in vivo; details: C57BL/6J mice, pooled livers
Method: Ligand blot assay of LDL-receptors was performed using ^125I-labeled rabbit β-migrating very low density lipoprotein (VLDL), as described previously (Rudling et al 1992. PNAS 89; 6983-6987). Membrane proteins were separated by SDS-PAGE (6% poly-acrylamide). After electrotransfer of proteins to nitrocellulose filters and subsequent incubation ^125I-β-VLDL filters were exposed onto DuPont X-ray film at −70° C.
The absence of LDL receptors in LDLRKO animals was confirmed by ligand blot of hepatic membranes obtained from pooled livers from each animal group, using β-VLDL as ligand (not shown). The expression of LDL receptors in C57BL/6J mice was not altered by GH treatment.

[8] = system: HMG CoA reductase mRNA; assay: HMG CoA reductase mRNA levels by solution hybridization after GH infusion; assay type: in vivo, mice; details: liver
Method: as §4

[9] = system: LDLRKO mice; assay: GH infusion for six days: total plasma cholesterol, triglycerides and total hepatic cholesterol; assay type: in vivo
Description: as §1
(§7) The total hepatic cholesterol was determined, following extraction and subsequent drying under nitrogen from liver samples, as described (Rudling M. J. Lipid Res. 33: 493-50 1992). Total hepatic and plasma cholesterol and plasma triglycerides were assayed using commercial available methods (Boehringer-Mannheim, Mannheim, Germany).
(§8) Infusion of GH to C57BL/6J and LDLRKO mice. Two sets of ten animals of each strain were continuously infused at a rate of 1 mg/kg/d. After six days of treatment, animals were killed and plasma and livers were collected.
(§9) To confirm this surprising finding of a plasma cholesterol lowering effect of GH in LDLR deficient animals with pronounced hypercholesterolemia, the previous experiment was repeated. In addition, we wanted to also determine the enzymatic activities of 3-hydroxy-3-methyl-glutaryl coenzyme A, (HMG CoA) reductase, and cholesterol 7α hydroxylase, (C7αOH), being the rate limiting steps in the synthesis of cholesterol and bile acids, respectively. Animals received the same dose of GH that was infused for six days.
(§10) FIG. 1 is a graph that depicts total plasma cholesterol, triglycerides and total hepatic cholesterol in normal (C57 BL) and LDLRKO (KO) mice±GH (1 mg/kg/day) for 6 days. Each group consisted of 10 animals. Bars indicate SEM.
(§11) Each group consisted of 10 animals. Bars indicate SEM.

[10] = system: C57BL/6J mice; assay: as above; assay type: in vivo; details: GH 1 mg/kg/d infusion
Description: as §1, §7, §8, §9, §10, §11

[11] = LDLRKO mice, GH 1 mg/kg/d infusion, six days
[12] = repeated experiment, same GH dose, six days (FIG. 4)

For “GH: Recombinant human GH (Genotropin), purchased from Pharmacia & Upjohn, infused at 1.0 mg/kg per day”, which “increase of C7αOH activity” value ([1]; C57/BL6J mice) is on record?
The value was 115%.

What about the “increase of C7αOH activity” value ([1]; LDLRKO mice) of the same substance?
Its value is 46%.

What about the “enzymatic activity of C7αOH (in words)” value ([1]; LDLRKO mice, GH infusion) of the same substance?
Its value is “stimulated; also recorded: normalized”.

And the “enzymatic activity of C7αOH (in words)” value ([1]; normal mice, GH treatment)?
Its value is “stimulated”.

What about the “reduction of plasma cholesterol” value ([2]; groups of 5) of the same substance?
Its value is 10%.

What about the “reduction of plasma triglycerides” value ([2]; groups of 5) of the same substance?
The value was “approx. 20%”.

And the “reduction in C7αOH mRNA level” value ([3]; C57/BL6J mice)?
Its value is 50%.

And the “increase of C7αOH mRNA level” value ([3]; LDLRKO mice)?
The value was 170%.

And the “increase of HMG CoA reductase activity” value ([4]; C57/BL6J mice)?
Its value is 53%.

And the “increase of HMG CoA reductase activity” value ([4]; LDLRKO mice)?
Its value is 113%.

And the “enzymatic activity of HMG CoA reductase (in words)” value ([4]; LDLRKO mice, GH infusion)?
Its value is “increased the activity to the same level as found in normal C57BL/6J animals; also recorded: normalized”.

And the “reduction of lipoprotein cholesterol by FPLC size fraction” value ([5]; LDLRKO mice, pooled plasma, first experiment (FIG. 2))?
The value was “within all size fractions”.

What about the “reduction in lipoprotein triglycerides by FPLC size fraction” value ([5]; LDLRKO mice, pooled plasma, first experiment (FIG. 3)) of the same substance?
Its value is “only within VLDL particles”.

What about the “plasma lipoprotein cholesterol by FPLC” value ([5]; repeated experiment (FIG. 5)) of the same substance?
The value was “lowered plasma lipoprotein cholesterol, particularly within VLDL and LDL particles”.

What about the “lipoprotein triglycerides by FPLC” value ([5]; repeated experiment (FIG. 6)) of the same substance?
Its value is “not only reduced among VLDL particles but also within LDL and HDL particles”.

What about the “lipoprotein triglycerides by FPLC size fraction” value [6] of the same substance?
The value was “increased triglycerides within VLDL particles”.

And the “expression of LDL receptors (ligand blot of hepatic membranes)” value [7]?
The value was “not altered”.

What about the “HMG CoA reductase mRNA levels” value ([8]; C57/BL6J mice) of the same substance?
Its value is “no effect”.

What about the “increase of HMG CoA reductase mRNA levels” value ([8]; LDLRKO mice) of the same substance?
Its value is 20%.

And the “reduced plasma cholesterol level” value ([9]; LDL-receptor knockout mice, GH infusion)?
Its value is 30-40%.

And the total hepatic cholesterol [9, 11]?
Its total hepatic cholesterol is “slight reduction”.

What about the total plasma triglycerides [9, 11] of the same substance?
Its total plasma triglycerides is “slight but not significant reduction”.

What about the total plasma cholesterol ([9]; LDLRKO mice, GH 1 mg/kg/d infusion, six days, first experiment) of the same substance?
Its total plasma cholesterol is “clearly reduced”.

What about the “reduction of total plasma cholesterol versus first experiment” value [9, 12] of the same substance?
The value was “slightly less pronounced”.

And the “total plasma cholesterol and triglycerides, and total hepatic cholesterol versus first experiment” value [9, 12]?
The value was “practically identical results”.

And the total plasma cholesterol ([10]; C57BL/6J (normal) mice)?
The total plasma cholesterol was “no significant effect; also recorded: no reduction”.

And the total plasma triglycerides ([10]; C57BL/6J mice)?
Its total plasma triglycerides is “unaltered”.

What about the total hepatic cholesterol ([10]; normal C57BL/6J mice) of the same substance?
The total hepatic cholesterol was “slightly increased”.

Which “effect on plasma cholesterol (in words)” value ([2]; drug alone) does the source give for cholestyramine [reference compound] here?
Its value is “no effects”.

Source: US6559289B1, “Use of growth hormone or analogues thereof for the treatment of mammals with familial hypercholesterolemia” (Salhtech I Goteborg AB, priority 1998, dated 2003)
